Source: US11813264B2, “PAR1 modulation to alter myelination” (Mayo Foundation for Medical Education and Research, priority 2014, dated 2023)
“Also recorded” adds a separate entry of the source.

Experiments:
Erk1/2 phosphorylation = assay: Klk6-PAR signaling assay, Erk1/2 phosphorylation by Western blot in Oli-neu; format: cell-based, mouse
Experimental: Klk6-PAR signaling assays: To examine the ability of Klk6 to mediate PAR-dependent signaling in oligodendrocytes, Oli-neu oligodendroglia (3.5×10^5 cells/well in six-well plates) were treated with Klk6 (150 nM) for 10 min, followed by protein harvest. Cell lysates were analyzed for phosphorylated or nonphosphorylated Erk1/2 by Western blot. In experiments to determine the role of PARs in Klk6 signaling, Oli-neu were preincubated with the PAR1 antagonist, SCH79797 dihydrochloride (50 nM, Tocris Biosciences, Minneapolis, MN) for 30 minutes prior to Klk6 application.
Western blot: Oli-neu lysates were obtained using a buffer containing 1% NP40, 0.5% deoxycholate, 10% glycerol, and 20 mM Tris base and separated on SDS-polyacrylamide gels prior to transfer. Membranes were blocked with 5% milk in TBS-T and incubated overnight with primary antibodies including rabbit anti-phospho-Erk1/2 (1:1,000, Cell Signaling Technology, Danvers, MA), followed with a species-appropriate horseradish peroxidase-conjugated secondary antibody (1:20,000 GE Healthcare Unlimited, UK). Signal was detected using Chemiluminescence Supersignal Pico (Pierce, Rockford, IL). Western blots were repeated three times from independent cultures, scanned, and quantified by densitometry (BioRad Quantity One 1-D Analysis Software, BioRad, Hercules, CA). Erk1/2 signal was normalized to its nonphosphorylated form. Equal loading was verified by reprobing blots for […] (Novus Biologicals, Littleton, CO).

PAR1 [1] = biological target: T1, PAR1 (Mus musculus, UniProt P30558); assay: Oligodendrocyte gene expression after PAR1 inhibitor treatment, real time RT-PCR; format: cell-based; design: endogenous in cells; host or cells: primary mouse oligodendrocytes (OPCs shaken from P1 cortical mixed glial cultures); details: 70 nM for 48 hours
T1 sequence (P30558 22-430): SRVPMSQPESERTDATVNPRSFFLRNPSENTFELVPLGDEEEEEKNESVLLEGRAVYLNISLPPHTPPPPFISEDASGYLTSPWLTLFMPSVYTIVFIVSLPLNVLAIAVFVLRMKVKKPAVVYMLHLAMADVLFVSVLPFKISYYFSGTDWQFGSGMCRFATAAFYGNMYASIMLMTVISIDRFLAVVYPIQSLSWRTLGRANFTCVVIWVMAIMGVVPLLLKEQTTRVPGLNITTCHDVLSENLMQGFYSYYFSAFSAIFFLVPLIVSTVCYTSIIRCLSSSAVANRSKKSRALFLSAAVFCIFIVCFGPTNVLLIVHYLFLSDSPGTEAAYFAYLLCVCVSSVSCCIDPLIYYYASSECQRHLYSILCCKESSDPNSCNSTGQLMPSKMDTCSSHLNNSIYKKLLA

PAR1 [2] = biological target: T1, PAR1; assay: Neural precursor cell proliferation (BrdU incorporation); format: cell-based; design: endogenous in cells; details: 70, 35, 10 or 1 nM; NPCs from adult SVZ
Experimental: Effects of pharmacologic inhibition of PAR1 on NPC proliferation in vitro: NPCs were isolated from the SVZ of 8 week-old adult C57BL6/J mice, cultured in suspension, and treated with 70, 35, 10, or 1 nM of SCH79797, a small molecule inhibitor of PAR1.

[3] = test system: oligodendrocyte progenitor cells (OPCs); assay: OPC process outgrowth; format: cell-based, mouse
Experimental: Oligodendrocyte Cultures: Purified cortical oligodendrocyte progenitor cells (OPCs) and differentiated oligodendrocytes were isolated from mixed glial cultures derived from postnatal day 1 mice (McCarthy and de Vellis, J Cell Blot 85:890-902, 1980). Glial cultures were grown in media containing DMEM, 2 mM Glutamax, 1 mM sodium pyruvate, 20 mM HEPES, and 10% heat-inactivated fetal calf serum (Atlanta Biologicals, Lawrenceville, GA). OPCs were isolated from 10 days-in-vitro (DIV) mixed glial cultures by overnight shaking and purified by differential adhesion. OPCs were seeded in defined Neurobasal A media containing 1% N2, 50 U/mL penicillin/streptomycin, 2 mM Glutamax, 1 mM sodium pyruvate, 0.45% glucose, and 50 μM β-mercaptoethanol (Sigma Aldrich, USA). OPCs were seeded at 3×10^4/cm^2 onto tissue culture plastic or 12 mm glass cover slips coated with poly-L-lysine (PLL, 10 μg/mL). After 24 h, cultures were 92-98% immunoreactive (IR) for sulfatide (O4) and by 72 hours at least 80% were also MBP-IR.
PAR agonist-induced changes in oligodendrocyte morphology: To determine the effects of recombinant Klk6, Klk1, thrombin, or PAR1-AP on oligodendroglia, 3 DIV PAR1^+/+, PAR1^−/−, and PAR2^−/− oligodendrocytes, PAR1^+/+ OPCs immediately post purification, or Oli-neu cells were grown on cover slips in the presence of agonists for 24 h. For ATP toxicity assays, oligodendrocytes were incubated with ATP (50 μM, Sigma Aldrich) in the presence of Klk6 or Klk1. Following each treatment, oligodendrocyte and OPC cultures were immunolabeled for O4 to visualize the cell body and processes. Oli-neu processes were visualized by staining the actin cytoskeleton with Cy3-conjugated Phalloidin.
To assess the effects of Klk6 and other PAR1 agonists on oligodendrocyte morphology and process stability, 20× digital micrographs were overlaid with a 780 μm^2 grid and ImageJ software 1.45r (National Institutes of Health) used to record cell number and the number of processes crossing horizontal grid lines (Scarisbrick et al., Brain 125:1283-1296, 2002). Data are expressed as the mean number of O4^+ or Phalloidin^+ processes per DAPI^+ cell (±SEM).
Changes in OPC or oligodendrocyte morphology were quantified from five microscopic fields per cover slip with the mean and SEM calculated across three cover slips per experiment. Each experiment was repeated at least twice using independent cultures. Analysis of oligodendrocyte morphology was performed without knowledge of treatment groups.

PAR1 [4] = biological target: T1, PAR1; assay: Organotypic cerebellar slice culture with PAR1 inhibitor; format: cell-based; design: endogenous in cells; host or cells: primary mouse oligodendrocytes (OPCs shaken from P1 cortical mixed glial cultures); details: 70 nM, 7 days
Experimental: Pharmacologic inhibition of PAR1 in an organotypic cerebellar slice culture system: Cerebellar slices (350 μm) from postnatal day 8 mouse brain were grown in cell culture for 7 days in the presence or absence of 70 nM SCH79797, a small molecule inhibitor of PAR1. Cerebellar slices were then fixed with 2% paraformaldehyde and stained using immunofluorescence techniques for myelin associated makers, including MBP, a marker of mature oligodendrocytes (CC-1), and for a marker of oligodendrocyte progenitor cells (NG2). The photomicrographs in FIG. 16 show staining for each individual antigen, or for all of the antigens collectively in a single slice, as indicated.

NogoA RNA (PAR1 [1]): decrease
Olig2 RNA (PAR1 [1]): decrease
expression of MBP RNA (PAR1 [1]): significant increase
expression of PLP RNA (PAR1 [1]; oligodendrocytes 24 hours in culture): significant increase
BrdU incorporation (PAR1 [2]): greater levels
number of mature oligodendrocytes (CC-1) (PAR1 [4]): significant increases
number of progenitor cells positive for NG2 (PAR1 [4]): significant increases
abundance of MBP (PAR1 [4]; P8 cerebellar slices): significant increases
Compound: CC(C)c1ccc(Cn2ccc3c4c(N)nc(NC5CC5)nc4ccc32)cc1 [SCH79797]
ability of Klk6 to induce MAPK (Erk1/2) signaling in presence of inhibitor (Erk1/2 phosphorylation; SCH79797 50 nM, preincubated 30 minutes): blocked; also recorded: abolished
Erk1/2 phosphorylation (Erk1/2 phosphorylation; treatment alone, Klk6 10 minutes): No significant changes
Klk6-mediated inhibition of process outgrowth in presence of inhibitor ([3]; SCH79797 50 nM): diminished
attenuation of the ability of Klk6 to reduce OPC process outgrowth ([3]; SCH79797 50 nM for 3 hours prior to Klk6): ~34%
OPC process outgrowth relative to vehicle controls ([3]; SCH79797 alone): no significant effect
